From EP0108147B1, “Use of a protoberberine alkaloid and composition containing same” (MAROKO, Peter R., priority 1982, dated 1983)

Assays:
Assay type in all cases: in vivo
dogs = assay: Myocardial oxygen consumption (MV02) and epicardial ST segment elevation experiments; settings: for myocardial oxygen consumption and myocardial injury: dogs, varying dosages
Excerpt: These changes were due to lower. myocardial oxygen consumption during the occlusion with berberine treatment. […] This is quite an advanageous therapeutic combination of properties which further distinguish the compounds used in the invention from the conventional drugs.

Mongrel dogs = assay: Protocol HV: acute left ventricular failure by coronary microsphere embolization, closed chest; settings: for overall result in the model of acute left ventricular failure / preload reduction: dog, in vivo
Method: - Experiments were carried out in 21 mongrel dogs of either sex with body weight between 19 and 39 kg. Anesthesia was induced with sodium pentobarbital, 25 mg/kg of body weight intravenously, and small supplementary doses were given as necessary to maintain a constant level of anesthesia. The dogs were placed in the left lateral position and ventilation was maintained through a cuffed endotracheal tube with a volume-controlled respirator (Harvard Apparatus Co., Millis, Massachusetts). Polyethylene cannuleae were placed into the jugular and femoral veins for intravenous infusions and drug adminstration. Electrocardiograms (lead aVF) were monitored continuously throughout the experiments.
A polyethylene cannula was introduced into the aorta through the left carotid artery to record arterial pressure. (Stantham P23 ID transducer, Stantham Instruments, Inc. Oxnard, California). A Millar microtip transducer catheter (Millar Instruments, Inc., Houston, Texas) was introduced into the left ventricular cavity through the femoral artery to measure left ventricular pressures. For adjustment of zero level, left ventricular pressure was also measured through the fluid-filled lumen in the Millar catheter (Statham P23 ID transducer). The maximal rate of rise of left ventricular pressure, LV dP/dt, was recorded by means of a differentiator. All these parameters were recorded continuously on a polygraph (Gould 2800, Gould Instruments, Cleveland, Ohio). Cardiac output was determined by the thermodilution technique, using a thermistor catheter in the pulmonary artery and calculated by a cardiac output computer (Elecath, Electro- catheter Corp., Rahway, New Jersey). The coefficient of variation for duplicate CO measurements was 5%. In addition to the parameters directly obtained, total peripheral vascular resistance was calculated from the ratio of […] and cardiac output. Stroke volume was calculated by dividing cardiac output by heart rate. Heparin (Invendex) (5000 IU) was administered to avoid clotting of the catheters.
To induce acute left vetricular failure, initially the left main coronary artery was catheterized with a Judkin coronary artery catheter (7F, ISCI Cardiology and Radiology Products, Billerica, Massachusetts) under fluoroscopic control. It was introduced through a femoral artery, and polystyrene microspheres (3M Company, St. Paul, Minnesota) with a diameter of 52. 5 ± 4.0 µm (mean±SD) were injected into the coronary artery. The microspheres were used in a concentration of 1 mg (i.e., 12,000) per ml saline. The first dose of microsphere solution was 0.5 mi/kg body weight, and all subsequent doses were 0.25 ml/kg body weight, administered every 5 minutes. Administration of microspheres was discontinued when LV/dP/dt had been reduced by 30% or more when measured 4 minutes after the last dose. All dogs received prophylactic antiarrhythmic treatment with intravenous lidocaine, 1.5 mg/kg body weight as a bolus 20 min after the end of embolization, followed by a continuous infusion of […].
Forty-five minutes were allowed to elapse to verify the stability of the preparation. If Lv dP/dt or left ventricular end diastolic pressure had changed by 20% or more between 30 and 45 minutes after embolization, the dogs were excluded from this study and not randomized. Forty-five minutes after the end of embolization, the dogs were assigned randomly to three groups: a) Berberine-treated group, 0.2 mg/kg/ min, dissolved in 60 ml of a solution of 5% dextrose in water administered in a constant infusion during 30 minutes; b) ouabain-treated group, 0.03 mg/kg was administered in 60 ml of a 5% solution of dextrose in water during 30 minutes; and c) Control group, administration of 60 ml of a 5% solution of dextrose in water during 30 min. […]

closed-chest dogs = assay: Protocol TE: electrophysiologic properties in closed-chest dogs; settings: for result when substituted in the electrophysiologic experiments: dog, in vivo
Method: Experiments were carried out to analyze the electrophysiologic properties of berberine (portocol TE). In this protocol closed-chest dogs were anesthetized with intravenous pentobarbital (30 mg/Kg). Electrode catheters were placed, under fluoroscopy, in the high right atrium, right venticle, and in the aorta near the non-coronary aortic cusp to record His bundle potential. In addition aortic pressure (Statham gauge) and surface ECG were obtained. All parameters were recorded on an Electronic for Medicine polygraph (Model DR 8), with a paper speed of 100 mm/sec. The recordings were obtained before berberine treatment and after five successive five minute infusions of 0.2 mg/Kg/min of berberine in each one of the dogs. At each one of these time intervals recordings were done with the "spontaneous" normal sinus rhythm and with atrial and ventricular extrastimuli were given during the normal sinus as well as during the pacing phases of the experiment to determine the refractory period of the artria, atrio-ventricular node and of the His-Purkinje system and ventricle. Moreover, sinus node recovery time was measured.

[1] = five successive five minute infusions of 0.2 mg/Kg/min

SMILES: COc1ccc2cc3[n+](cc2c1OC)CCc1cc2c(cc1-3)OCO2 [berberine]
- epicardial ST segment elevations (dogs; after coronary artery occlusion): did not change them
- myocardial injury (epicardial ST segment elevations) (dogs; consecutive occlusions, 0.2 mg/kg/min, vs control occlusion, pilot experiments): less myocardial injury
- myocardial oxygen consumption (dogs; dogs with acute left ventricular failure, effect greater than that of ouabain): significantly reduced
- myocardial oxygen consumption (dogs; dogs without coronary artery occlusion): reduction in myocardial oxygen consumption
- mycardial oxygen consumption (MV02) (dogs; non-failing heart, 0.02 mg/kg.min): did not change
- time to increase of LVdP/dt and reduction of left ventricular end diastolic pressure (Mongrel dogs; 0.2 mg/kg/min infusion): ≤ 2.5 min
- Diastolic and mean arterial pressure (Mongrel dogs; 0.2 mg/kg/min, 30 min): significantly although only slightly reduced
- Systolic arterial pressure (Mongrel dogs; 0.2 mg/kg/min, 30 min): not significantly changed
- decrease of total peripheral vascular resistance (Mongrel dogs; 0.2 mg/kg/min, 30 min): 19 ± 2%
- fall of heart rate (Mongrel dogs; 0.2 mg/kg/min, 30 min): 8 beats/min
- increase of LVdP/dt (Mongrel dogs; 0.2 mg/kg/min, end of the 30-minute infusion): 28 ± 8%
- cardiac output (Mongrel dogs; after infusion, from 1.76 ± 0.15): 1.93 ± 0.16 L/min
- Stroke volume (Mongrel dogs; after infusion, from 14.6 ± 1.9): 17.3 ± 2.7 mL
- pulse pressure (Mongrel dogs; after infusion, from 28 ± 2): 33 ± 4 mmHg
- Total peripheral vascular resistance (Mongrel dogs; after infusion, from 4915 ± 559): 4004 ± 496 10^-5N·S·cm^-5
- decrease of left venticular end diastolic pressure (Mongrel dogs; end of the 30-minute infusion): 38 ± 4%
- Left venticular end diastolic pressure (Mongrel dogs; end of the 30-minute infusion, from 13.3 ± 0.8): 8.1 ± 0.5 mmHg
- LVdP/dt (Mongrel dogs; end of the 30-minute infusion, from 1572 ±80): 2010 ± 95 mmHg/s
- A-H, H-V and QRS intervals (closed-chest dogs; [1]): did not change
- Sinus node recovery (closed-chest dogs; [1]): did not change
- artrial refractory period (closed-chest dogs; [1]): did not change
- change of QTc (closed-chest dogs; [1]): 13%
- decrease of heart rate (closed-chest dogs; [1]): 8%
- increase of ventricular effective refractory period (closed-chest dogs; [1]): 11%

SMILES: COc1ccc2cc3[n+](cc2c1O)CCc1cc2c(cc1-3)OCO2 [berberrubine]
- myocardial oxygen consumption and myocardial injury (dogs): reduction on myocardial oxygen consumption and less myocardial injury than the control
- overall result in the model of acute left ventricular failure (Mongrel dogs): perform in an equivalent manner
- preload reduction (Mongrel dogs): comparable preload reduction
- result when substituted in the electrophysiologic experiments (closed-chest dogs): likewise

SMILES: COc1cc2c(cc1O)C[C@H]1c3cc(O)c(OC)cc3CCN1C2 [coreximine]
- myocardial oxygen consumption and myocardial injury (dogs): reduction on myocardial oxygen consumption and less myocardial injury than the control
- overall result in the model of acute left ventricular failure (Mongrel dogs): perform in an equivalent manner
- preload reduction (Mongrel dogs): comparable preload reduction
- result when substituted in the electrophysiologic experiments (closed-chest dogs): comparable results are shown
